Laboratory results reported in PMC7180948, “New Insights into 4-Anilinoquinazolines as Inhibitors of Cardiac Troponin I–Interacting Kinase (TNNi3K)” (Molecules, 2020).

What was measured:
Experiment in all cases: biochemical
Design in all cases: KINOMEscan competition binding panel (Eurofins DiscoverX), single concentration, % inhibition
Conditions in all cases: read-out: 7 at 1 µM % inhibition
[1] = biological target: STK35 (Homo sapiens, UniProt Q8TDR2)
Method in brief: (§1)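 KINOMEscan selectivity screen; >400 human kinases; compound at 1 µM, single concentration.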

[2] = biological target: T1, ICK (Homo sapiens, UniProt Q9UPZ9)
T1 construct: gene CILK1
Method in brief: as §1

[3] = biological target: KIT-autoinhibited (Homo sapiens, UniProt P10721)
Method in brief: as §1

[4] = biological target: SIK2 (Homo sapiens, UniProt Q9H0K1)
Method in brief: as §1

[5] = biological target: T2, VEGFR2 (Homo sapiens, UniProt P35968)
T2 construct: gene KDR
Method in brief: as §1

[6] = biological target: SGK3 (Homo sapiens, UniProt Q96BR1)
Method in brief: as §1

[7] = biological target: T3, ASK1 (Homo sapiens, UniProt Q99683)
T3 construct: gene MAP3K5
Method in brief: as §1

[8] = biological target: MST1R (Homo sapiens, UniProt Q04912)
Method in brief: as §1

[9] = biological target: TRPM6 (Homo sapiens, UniProt Q9BX84)
Method in brief: as §1

[10] = biological target: TTK (Homo sapiens, UniProt P33981)
Method in brief: as §1

[11] = biological target: PLK4 (Homo sapiens, UniProt O00444)
Method in brief: as §1

[12] = biological target: T4, TRKA (Homo sapiens, UniProt P04629)
T4 construct: gene NTRK1
Method in brief: as §1

[13] = biological target: PIK3C2B (Homo sapiens, UniProt O00750)
Method in brief: as §1

[14] = biological target: BLK (Homo sapiens, UniProt P51451)
Method in brief: as §1

[15] = biological target: LCK (Homo sapiens, UniProt P06239)
Method in brief: as §1

[16] = biological target: T5, ABL1(H396P)-phosphorylated (Homo sapiens, UniProt P00519, H396P)
T5 construct: phosphorylated
Method in brief: as §1

[17] = biological target: BTK (Homo sapiens, UniProt Q06187)
Method in brief: as §1

[18] = biological target: TAOK3 (Homo sapiens, UniProt Q9H2K8)
Method in brief: as §1

[19] = biological target: GRK1 (Homo sapiens, UniProt Q15835)
Method in brief: as §1

[20] = biological target: T6, MEK1 (Homo sapiens, UniProt Q02750)
T6 construct: gene MAP2K1
Method in brief: as §1

[21] = biological target: T7, CTK (Homo sapiens, UniProt P42679)
T7 construct: gene MATK
Method in brief: as §1

[22] = biological target: SGK2 (Homo sapiens, UniProt Q9HBY8)
Method in brief: as §1

[23] = biological target: DYRK2 (Homo sapiens, UniProt Q92630)
Method in brief: as §1

[24] = biological target: FLT3(ITD,F691L) (Homo sapiens, UniProt P36888, F691L/ITD)
Method in brief: as §1

Sequence of TTK (P33981 whole entry): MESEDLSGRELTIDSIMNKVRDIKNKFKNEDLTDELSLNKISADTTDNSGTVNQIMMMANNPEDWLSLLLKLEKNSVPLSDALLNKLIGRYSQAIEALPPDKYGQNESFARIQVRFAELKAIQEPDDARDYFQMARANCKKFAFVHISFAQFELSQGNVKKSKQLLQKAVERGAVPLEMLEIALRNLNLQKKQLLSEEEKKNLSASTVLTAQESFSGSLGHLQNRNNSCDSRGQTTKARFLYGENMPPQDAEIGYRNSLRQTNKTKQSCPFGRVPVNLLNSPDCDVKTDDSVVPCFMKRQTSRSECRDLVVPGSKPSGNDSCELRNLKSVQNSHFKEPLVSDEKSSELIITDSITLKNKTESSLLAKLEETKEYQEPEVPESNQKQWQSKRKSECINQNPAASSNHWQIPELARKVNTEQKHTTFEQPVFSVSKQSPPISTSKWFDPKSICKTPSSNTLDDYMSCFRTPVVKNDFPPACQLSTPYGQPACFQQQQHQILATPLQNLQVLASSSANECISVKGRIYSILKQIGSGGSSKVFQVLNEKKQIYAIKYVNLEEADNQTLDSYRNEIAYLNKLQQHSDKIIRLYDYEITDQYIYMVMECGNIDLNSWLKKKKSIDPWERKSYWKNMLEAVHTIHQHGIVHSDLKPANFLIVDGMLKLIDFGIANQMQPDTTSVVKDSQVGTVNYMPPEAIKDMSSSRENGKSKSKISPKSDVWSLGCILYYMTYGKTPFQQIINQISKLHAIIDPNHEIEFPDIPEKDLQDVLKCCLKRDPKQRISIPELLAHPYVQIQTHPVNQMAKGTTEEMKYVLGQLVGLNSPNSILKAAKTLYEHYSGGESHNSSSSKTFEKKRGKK
Sequence of STK35 (Q8TDR2 whole entry): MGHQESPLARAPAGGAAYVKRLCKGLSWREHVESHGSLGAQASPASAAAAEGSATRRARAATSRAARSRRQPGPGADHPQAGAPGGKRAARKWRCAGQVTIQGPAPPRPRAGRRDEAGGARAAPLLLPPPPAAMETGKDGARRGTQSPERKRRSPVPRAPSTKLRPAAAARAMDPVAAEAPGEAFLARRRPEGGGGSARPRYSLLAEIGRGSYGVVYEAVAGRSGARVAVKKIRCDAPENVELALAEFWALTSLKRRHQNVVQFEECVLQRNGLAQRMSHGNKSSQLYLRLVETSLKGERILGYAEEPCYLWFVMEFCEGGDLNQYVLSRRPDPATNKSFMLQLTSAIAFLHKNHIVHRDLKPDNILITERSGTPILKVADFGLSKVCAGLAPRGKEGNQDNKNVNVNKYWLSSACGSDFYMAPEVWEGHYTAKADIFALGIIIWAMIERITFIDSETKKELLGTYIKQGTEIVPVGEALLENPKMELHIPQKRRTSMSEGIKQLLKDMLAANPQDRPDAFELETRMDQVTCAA
Sequence of TAOK3 (Q9H2K8 whole entry): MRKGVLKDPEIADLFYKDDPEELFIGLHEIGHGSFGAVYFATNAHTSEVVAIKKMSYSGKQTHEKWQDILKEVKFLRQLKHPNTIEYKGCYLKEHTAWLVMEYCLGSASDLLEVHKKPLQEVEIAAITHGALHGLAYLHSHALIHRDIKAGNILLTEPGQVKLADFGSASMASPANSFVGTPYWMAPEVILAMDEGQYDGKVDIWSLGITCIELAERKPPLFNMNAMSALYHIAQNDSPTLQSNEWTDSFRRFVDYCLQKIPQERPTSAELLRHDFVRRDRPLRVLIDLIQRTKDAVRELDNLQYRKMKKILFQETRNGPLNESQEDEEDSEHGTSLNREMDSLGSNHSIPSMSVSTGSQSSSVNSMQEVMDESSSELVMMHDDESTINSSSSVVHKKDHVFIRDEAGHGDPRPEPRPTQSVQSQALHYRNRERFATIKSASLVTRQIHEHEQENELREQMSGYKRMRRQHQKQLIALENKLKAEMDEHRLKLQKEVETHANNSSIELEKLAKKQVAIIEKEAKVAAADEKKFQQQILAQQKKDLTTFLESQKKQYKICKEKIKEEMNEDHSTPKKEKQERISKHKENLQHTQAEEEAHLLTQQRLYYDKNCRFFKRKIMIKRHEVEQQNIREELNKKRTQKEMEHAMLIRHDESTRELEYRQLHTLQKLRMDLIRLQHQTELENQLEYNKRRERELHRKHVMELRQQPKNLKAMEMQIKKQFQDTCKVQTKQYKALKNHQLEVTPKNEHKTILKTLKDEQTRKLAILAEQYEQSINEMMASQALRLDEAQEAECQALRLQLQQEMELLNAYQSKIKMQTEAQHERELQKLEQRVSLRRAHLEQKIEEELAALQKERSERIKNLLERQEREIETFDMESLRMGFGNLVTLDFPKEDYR
T2 sequence (P35968 whole entry): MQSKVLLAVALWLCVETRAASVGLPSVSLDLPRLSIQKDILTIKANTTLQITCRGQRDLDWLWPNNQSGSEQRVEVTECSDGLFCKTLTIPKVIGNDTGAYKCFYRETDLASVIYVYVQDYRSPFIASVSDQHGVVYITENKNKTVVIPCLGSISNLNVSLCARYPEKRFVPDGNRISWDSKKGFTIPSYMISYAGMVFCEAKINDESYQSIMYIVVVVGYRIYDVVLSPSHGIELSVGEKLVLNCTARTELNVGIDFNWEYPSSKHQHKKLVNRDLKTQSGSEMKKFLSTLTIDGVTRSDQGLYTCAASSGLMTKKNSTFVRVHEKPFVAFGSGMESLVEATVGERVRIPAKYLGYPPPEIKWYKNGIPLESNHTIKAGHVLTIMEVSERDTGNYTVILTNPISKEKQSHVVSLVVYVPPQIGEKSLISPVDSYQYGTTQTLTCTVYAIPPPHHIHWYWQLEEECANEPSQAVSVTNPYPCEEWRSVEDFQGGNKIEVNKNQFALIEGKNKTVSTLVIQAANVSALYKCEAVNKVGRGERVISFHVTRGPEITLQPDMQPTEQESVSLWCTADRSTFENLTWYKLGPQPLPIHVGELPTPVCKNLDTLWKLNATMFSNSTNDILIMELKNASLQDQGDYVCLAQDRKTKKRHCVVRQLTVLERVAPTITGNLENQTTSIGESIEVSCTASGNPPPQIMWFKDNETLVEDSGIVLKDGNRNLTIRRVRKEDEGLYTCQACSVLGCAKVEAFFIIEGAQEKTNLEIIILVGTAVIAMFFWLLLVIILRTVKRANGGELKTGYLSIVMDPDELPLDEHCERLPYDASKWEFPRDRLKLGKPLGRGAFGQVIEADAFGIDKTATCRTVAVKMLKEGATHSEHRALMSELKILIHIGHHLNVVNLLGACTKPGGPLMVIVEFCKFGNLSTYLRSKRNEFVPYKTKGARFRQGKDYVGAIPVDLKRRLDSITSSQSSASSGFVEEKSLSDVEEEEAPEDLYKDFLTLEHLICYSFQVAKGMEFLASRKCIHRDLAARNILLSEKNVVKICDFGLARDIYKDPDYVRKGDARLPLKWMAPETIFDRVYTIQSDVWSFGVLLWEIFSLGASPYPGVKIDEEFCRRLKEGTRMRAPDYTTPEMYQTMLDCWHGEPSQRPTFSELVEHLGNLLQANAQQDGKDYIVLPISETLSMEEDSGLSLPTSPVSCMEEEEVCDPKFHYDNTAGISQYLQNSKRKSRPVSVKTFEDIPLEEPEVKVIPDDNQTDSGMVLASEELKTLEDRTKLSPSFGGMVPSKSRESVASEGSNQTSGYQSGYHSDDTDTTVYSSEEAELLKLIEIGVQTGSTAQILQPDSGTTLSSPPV
Sequence of GRK1 (Q15835 whole entry): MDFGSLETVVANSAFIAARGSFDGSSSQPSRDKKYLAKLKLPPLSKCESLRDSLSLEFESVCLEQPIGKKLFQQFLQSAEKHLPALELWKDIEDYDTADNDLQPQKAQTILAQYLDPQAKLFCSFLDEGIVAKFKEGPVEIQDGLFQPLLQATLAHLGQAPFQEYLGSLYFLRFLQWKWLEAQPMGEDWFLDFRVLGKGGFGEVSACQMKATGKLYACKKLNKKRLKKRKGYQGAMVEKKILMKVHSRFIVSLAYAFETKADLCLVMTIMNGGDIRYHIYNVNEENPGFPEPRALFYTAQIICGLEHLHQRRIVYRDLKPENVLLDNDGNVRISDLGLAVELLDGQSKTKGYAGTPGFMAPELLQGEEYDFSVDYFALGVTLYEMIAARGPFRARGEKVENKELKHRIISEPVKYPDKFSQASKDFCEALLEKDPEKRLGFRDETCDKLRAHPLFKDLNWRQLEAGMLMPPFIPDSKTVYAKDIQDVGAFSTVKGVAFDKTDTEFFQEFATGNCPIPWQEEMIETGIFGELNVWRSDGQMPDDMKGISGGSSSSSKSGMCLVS
Sequence of BTK (Q06187 whole entry): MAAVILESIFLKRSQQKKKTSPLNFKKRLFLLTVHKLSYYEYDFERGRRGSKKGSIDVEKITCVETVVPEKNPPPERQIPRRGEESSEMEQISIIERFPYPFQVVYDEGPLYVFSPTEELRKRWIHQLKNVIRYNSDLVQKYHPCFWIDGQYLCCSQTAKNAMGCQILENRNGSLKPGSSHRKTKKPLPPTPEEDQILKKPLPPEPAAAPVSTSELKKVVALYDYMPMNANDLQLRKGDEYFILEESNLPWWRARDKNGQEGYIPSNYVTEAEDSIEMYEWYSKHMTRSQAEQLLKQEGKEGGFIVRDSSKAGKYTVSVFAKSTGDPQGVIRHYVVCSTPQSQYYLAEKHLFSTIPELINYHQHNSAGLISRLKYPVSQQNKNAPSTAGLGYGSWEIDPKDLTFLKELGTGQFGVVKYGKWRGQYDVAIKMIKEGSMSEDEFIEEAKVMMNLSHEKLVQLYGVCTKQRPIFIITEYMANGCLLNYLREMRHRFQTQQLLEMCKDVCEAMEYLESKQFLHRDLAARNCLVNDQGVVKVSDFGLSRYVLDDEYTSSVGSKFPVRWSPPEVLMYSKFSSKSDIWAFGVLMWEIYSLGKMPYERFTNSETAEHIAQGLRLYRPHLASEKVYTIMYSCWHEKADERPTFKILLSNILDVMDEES

In the case of `CNS(=O)(=O)c1ccc(N(C)C)c(Nc2ncnc3cc(OC)c(OC)cc23)c1` [compound 7, 3-((6,7-dimethoxyquinazolin-4-yl)amino)-4-(dimethylamino)-N-methylbenzenesulfonamide], the inhibition at 1 µM [1] is reported as 0%, the inhibition at 1 µM [2] is reported as 7% and the inhibition at 1 µM [3] is reported as 22%. It also gave an inhibition at 1 µM [4] of 69%, an inhibition at 1 µM [5] of 26% and an inhibition at 1 µM [6] of 1%. The inhibition at 1 µM [7] was 0%, the inhibition at 1 µM [8] was 3% and the inhibition at 1 µM [9] was 25%. The inhibition at 1 µM [10] was 7%, the inhibition at 1 µM [11] was 7% and the inhibition at 1 µM [12] was 22%. The inhibition at 1 µM [13] was 77%, the inhibition at 1 µM [14] was 29% and the inhibition at 1 µM [15] was 63%. For the same molecule, the inhibition at 1 µM [16] was 34%, the inhibition at 1 µM [17] was 54% and the inhibition at 1 µM [18] was 29%. For the same molecule, the inhibition at 1 µM [19] was 0%, the inhibition at 1 µM [20] was 35% and the inhibition at 1 µM [21] was 1%. It also gave an inhibition at 1 µM [22] of 0%, an inhibition at 1 µM [23] of 0% and an inhibition at 1 µM [24] of 22%.
